One assay addresses Tubulin. Briefly: Inhibition of tubulin polymerization (unknown origin) pretreated for 15 mins followed by GTP addition by spectrophotometric method. Format: protein-complex assay, Homo sapiens.
Assay [1] in a line: Cytotoxicity against human MEL28 cells. It is filed as functional, cell-based. The settings on record: SK-MEL-28.
In the next assay the test system is A549. The assay can be described thus: Cytotoxicity against human A549 cells. It is filed as functional, cell-based.
The next assay deals with HT-29. Briefly: Cytotoxicity against human HT-29 cells. Format: functional, cell-based.
Another assay deals with P388. The assay can be described thus: Cytotoxicity against mouse P388 cells. Format: functional, cell-based.

The structures appear in SMILES notation. ≈ marks a conversion by molar mass, not a printed value.

As a reminder, the IC50 is the concentration at which inhibition is half-maximal. For the compound `COC1=CC(=O)N(C(=O)[C@@H](OC(=O)[C@@H]2CCCN2C(=O)[C@@H]2CCCN2C(=O)[C@H](C(C)C)N(C)C(=O)[C@@H](NC(=O)[C@H](C(C)C)N(C)C)C(C)C)C(C)C)[C@H]1Cc1ccccc1` [DOLASTATIN 15], the 50% inhibitory concentration (IC50) on Tubulin worked out at 23 µM.
As to `C=C1C[C@@H]2C/C=C/C(=O)C/C(C)=C\C=C\C(=O)O[C@H]([C@H](O)NC(=O)/C=C\C=C\C)C/C(C)=C/[C@H](C1)O2` [ZAMPANOLIDE], the 50% inhibitory concentration (IC50) (in assay [1]; with A549; in the assay on HT-29; in the assay on P388) was 1 to 5 ng/mL (≈ 2.02 to 10.1 nM) in each case.
On to `CC[C@H](C)[C@@H]([C@@H](CC(=O)N1CCC[C@H]1[C@H](OC)[C@@H](C)C(=O)N[C@@H](Cc1ccccc1)c1nccs1)OC)N(C)C(=O)[C@@H](NC(=O)[C@H](C(C)C)N(C)C)C(C)C` [DOLASTATIN-10], for which, at Tubulin, the IC50 was 1.2 µM.

For the origin of these results see ChEMBL document CHEMBL4251663, “Marine Invertebrate Natural Products that Target Microtubules” (J Nat Prod, 2018).
